Consider one compound from patent US20040170685A1, “Bioactive stents and methods for use thereof” (MediVas, LLC, priority 2003, published 2004).

The structures appear in SMILES notation.

This experiment deals with human aortic smooth muscle cells (SMC). Description: Adhesion and proliferation of smooth muscle cells on gelatin coated culture plates, microscopic observation. In kind it is cell-based. As to conditions: bioagent 100? m. From the text:
This Example illustrates the effect of different concentrations of bioactive agents on adhesion and proliferation of epithelial cells (EC) and smooth muscle cells (SMC) on gelatin coated surfaces.
Human Coronary artery endothelial cells (EC) plated on gelatin coated culture plates were co-cultured with EC special media containing one of the bioactive agents shown in Table 1 below in the various concentrations shown.
Twenty four hours later the cells were observed microscopically, stained with trypan blue and counted. The results of the microscopic observation of cell morphology and confluency of culturing the EC in the presence of the Bioagents tested are summarized in Table 2 below. The effect of the various bioagents on EC adhesion and proliferation is shown graphically in FIG. 2.
Effect of different concentrations of the bioagents listed above in Table 1 was also tested using human aortic smooth muscle cells (SMC) under similar conditions as described for EC. The results of the bioagents on adhesion and proliferation of SMC plated on gelatin coated culture plates are summarized in Table 3 below and shown graphically in FIG. 3.

Turning to `CCCCCCCCCCCCC/C=C/[C@@H](O)[C@@H](N)COP(=O)(O)O` [S1P, Sphingosine 1-Phosphate], the “Microscopic observation for the SMC morphology and Confluency” value is recorded as 100% cells died.
